Data from the NIST ThermoML archive (doi:10.1021/je900882r).

Columns and labels:
[1] = refractive index (Na D-line) (dimensionless); mn = molality of the nth substance listed, in mol/kg; conditions: 298.15 K, 101 kPa, Liquid
[2] = mn = molality of the nth substance listed, in mol/kg; conditions: 298.15 K, 101 kPa, Liquid
[3] = cn = amount concentration of the nth substance listed, in mol/dm3; conditions: 298.15 K, 101 kPa, Liquid; for molar conductivity: Alternating current cell with electrodes; for viscosity: Capillary tube (Ostwald / Ubbelohde) method

CCCCn1cc[n+](C)c1.[Br-] [1-butyl-3-methylimidazolium bromide] + O
Conditions | mass density, [2] [kg/m3] | refractive index, [1]
m1 = 0.0909 | 1001.54 | 1.3357
m1 = 0.0915 | 1001.77 | 1.3359
m1 = 0.097 | 1001.97 | 1.336
m1 = 0.1797 | 1005.97 | 1.3382
m1 = 0.1833 | 1006.34 | 1.3388
m1 = 0.185 | 1006.46 | 1.339
m1 = 0.267 | 1010.2 | 1.3407
m1 = 0.2863 | 1011.4 | 1.3416
m1 = 0.2866 | 1011.29 | 1.3414
m1 = 0.3496 | 1014.39 | 1.343
m1 = 0.3564 | 1014.36 | 1.3433
m1 = 0.3651 | 1014.07 | 1.3437

NCC(=O)O [2-aminoacetic acid] + O
[1], Standard Abbe refractometry
Conditions | refractive index
m1 = 0.0941 | 1.3333
m1 = 0.1492 | 1.3339
m1 = 0.1972 | 1.3345
m1 = 0.2611 | 1.3354
m1 = 0.2975 | 1.3359
m1 = 0.303 | 1.336
m1 = 0.3935 | 1.337
m1 = 0.4408 | 1.3376

Conditions | mass density [kg/m3] | molar conductivity [S·m2/mol] | viscosity [mPa·s]
[2], m1 = 0.0521 | 998.7 | – | –
[2], m1 = 0.0997 | 1000.21 | – | –
[2], m1 = 0.1577 | 1002.02 | – | –
[2], m1 = 0.1992 | 1003.32 | – | –
[2], m1 = 0.2235 | 1004.07 | – | –
[2], m1 = 0.2902 | 1006.11 | – | –
[2], m1 = 0.3266 | 1007.22 | – | –
[2], m1 = 0.4495 | 1010.93 | – | –
[2], m1 = 0.5179 | 1012.94 | – | –
[3], c1 = 0.0007166 | – | 0.0153 | –
[3], c1 = 0.001486 | – | 0.0148 | –
[3], c1 = 0.002275 | – | 0.0146 | –
[3], c1 = 0.003892 | – | 0.0145 | –
[3], c1 = 0.00566 | – | 0.0142 | –
[3], c1 = 0.007383 | – | 0.0139 | –
[3], c1 = 0.00904 | – | 0.0137 | –
[3], c1 = 0.0116 | – | 0.0135 | –
[3], c1 = 0.01431 | – | 0.0132 | –
[3], c1 = 0.01747 | – | 0.0129 | –
[3], c1 = 0.02104 | – | 0.0126 | –
[3], c1 = 0.02475 | – | 0.0123 | –
[3], c1 = 0.052 | – | – | 0.881
[3], c1 = 0.0997 | – | – | 0.892
[3], c1 = 0.158 | – | – | 0.91
[3], c1 = 0.1999 | – | – | 0.92
[3], c1 = 0.2244 | – | – | 0.929
[3], c1 = 0.292 | – | – | 0.939
[3], c1 = 0.3289 | – | – | 0.945
[3], c1 = 0.4544 | – | – | 0.965
[3], c1 = 0.5246 | – | – | 0.98

C[C@H](N)C(=O)O [(S)-2-aminopropanoic acid] + O
[1], Standard Abbe refractometry
Conditions | refractive index
m1 = 0.0533 | 1.3326
m1 = 0.091 | 1.333
m1 = 0.1496 | 1.3337
m1 = 0.1913 | 1.3342
m1 = 0.2516 | 1.335
m1 = 0.2926 | 1.3355
m1 = 0.3514 | 1.3362
m1 = 0.3799 | 1.3365
m1 = 0.4471 | 1.3374
m1 = 0.4827 | 1.3378

Conditions | mass density [kg/m3] | molar conductivity [S·m2/mol] | viscosity [mPa·s]
[2], m1 = 0.0499 | 998.55 | – | –
[2], m1 = 0.0849 | 999.6 | – | –
[2], m1 = 0.1397 | 1001.23 | – | –
[2], m1 = 0.1784 | 1002.37 | – | –
[2], m1 = 0.2346 | 1004.02 | – | –
[2], m1 = 0.2731 | 1005.13 | – | –
[2], m1 = 0.3275 | 1006.7 | – | –
[2], m1 = 0.3551 | 1007.46 | – | –
[2], m1 = 0.4168 | 1009.23 | – | –
[2], m1 = 0.4513 | 1010.16 | – | –
[3], c1 = 0.0007166 | – | 0.0153 | –
[3], c1 = 0.001486 | – | 0.0148 | –
[3], c1 = 0.002275 | – | 0.0146 | –
[3], c1 = 0.003892 | – | 0.0145 | –
[3], c1 = 0.00566 | – | 0.0142 | –
[3], c1 = 0.007383 | – | 0.0139 | –
[3], c1 = 0.00904 | – | 0.0137 | –
[3], c1 = 0.0116 | – | 0.0135 | –
[3], c1 = 0.01431 | – | 0.0132 | –
[3], c1 = 0.01747 | – | 0.0129 | –
[3], c1 = 0.02104 | – | 0.0126 | –
[3], c1 = 0.02475 | – | 0.0123 | –
[3], c1 = 0.0532 | – | – | 0.886
[3], c1 = 0.091 | – | – | 0.891
[3], c1 = 0.1498 | – | – | 0.897
[3], c1 = 0.1918 | – | – | 0.902
[3], c1 = 0.2526 | – | – | 0.912
[3], c1 = 0.2941 | – | – | 0.921
[3], c1 = 0.3537 | – | – | 0.928
[3], c1 = 0.3827 | – | – | 0.936
[3], c1 = 0.4512 | – | – | 0.951
[3], c1 = 0.4876 | – | – | 0.957

CC(C)[C@H](N)C(=O)O [L-valine] + O
[1], Standard Abbe refractometry
Conditions | refractive index
m1 = 0.1173 | 1.3348
m1 = 0.1402 | 1.3353
m1 = 0.1894 | 1.3363
m1 = 0.2512 | 1.3375
m1 = 0.2973 | 1.3384
m1 = 0.3211 | 1.3389
m1 = 0.3841 | 1.3401
m1 = 0.4378 | 1.341

Conditions | mass density [kg/m3] | molar conductivity [S·m2/mol] | viscosity [mPa·s]
[2], m1 = 0.1173 | 1000.17 | – | –
[2], m1 = 0.1402 | 1000.77 | – | –
[2], m1 = 0.1894 | 1002.03 | – | –
[2], m1 = 0.2512 | 1003.59 | – | –
[2], m1 = 0.2973 | 1004.74 | – | –
[2], m1 = 0.3211 | 1005.32 | – | –
[2], m1 = 0.3841 | 1006.84 | – | –
[2], m1 = 0.4378 | 1008.11 | – | –
[3], c1 = 0.0007166 | – | 0.0153 | –
[3], c1 = 0.001486 | – | 0.0148 | –
[3], c1 = 0.002275 | – | 0.0146 | –
[3], c1 = 0.003892 | – | 0.0145 | –
[3], c1 = 0.00566 | – | 0.0142 | –
[3], c1 = 0.007383 | – | 0.0139 | –
[3], c1 = 0.00904 | – | 0.0137 | –
[3], c1 = 0.0116 | – | 0.0135 | –
[3], c1 = 0.01431 | – | 0.0132 | –
[3], c1 = 0.01747 | – | 0.0129 | –
[3], c1 = 0.1173 | – | – | 0.892
[3], c1 = 0.1403 | – | – | 0.899
[3], c1 = 0.1898 | – | – | 0.906
[3], c1 = 0.2521 | – | – | 0.916
[3], c1 = 0.2987 | – | – | 0.938
[3], c1 = 0.3228 | – | – | 0.943
[3], c1 = 0.3867 | – | – | 0.958
[3], c1 = 0.4413 | – | – | 0.979
